Source: ChEMBL document CHEMBL2321705, “Novel diaryl ureas with efficacy in a mouse model of malaria” (Bioorg Med Chem Lett, 2013)
The source made the active and inactive calls. The calls are words filed in the database; no cut-off is given here.

test system: not listed separately; experiment: Inhibition of Plasmodium falciparum cysteine protease plasmepsin 2

Compound	IC50 [µM]
N=C(N)c1ccc(NC(=O)Nc2ccc(Oc3ccccc3)cc2)cc1	17

test system: Plasmodium falciparum; experiment: Antimalarial activity against Plasmodium falciparum D6 assessed as inhibition of parasite growth; type: functional, organism-based

Compound	EC50 [µM]
N=C(N)c1ccc(NC(=O)Nc2ccc(Oc3ccccc3)cc2)cc1	0.46

test system: Plasmodium falciparum; experiment: Antimalarial activity against Plasmodium falciparum W2 assessed as inhibition of parasite growth; type: functional, organism-based

Compound	EC50 [µM]
N=C(N)c1ccc(NC(=O)Nc2ccc(Oc3ccccc3)cc2)cc1	0.087

test system: Plasmodium falciparum; experiment: Antimalarial activity against Plasmodium falciparum delta pfpm4 assessed as growth inhibition; type: functional, organism-based

Compound	IC50 [µM]	IC90 [µM]
O=C(Nc1ccc(Cl)c(C(F)(F)F)c1)Nc1cc(C(F)(F)F)ccc1Oc1ccc(Cl)cc1Cl	0.066	0.086

test system: Plasmodium falciparum; experiment: Antimalarial activity against Plasmodium falciparum delta pfpm3 assessed as growth inhibition; type: functional, organism-based

Compound	IC50 [µM]	IC90 [µM]
O=C(Nc1ccc(Cl)c(C(F)(F)F)c1)Nc1cc(C(F)(F)F)ccc1Oc1ccc(Cl)cc1Cl	0.035	0.07

test system: Plasmodium falciparum; experiment: Antimalarial activity against Plasmodium falciparum delta pfpm2 assessed as growth inhibition; type: functional, organism-based

Compound	IC50 [µM]	IC90 [µM]
O=C(Nc1ccc(Cl)c(C(F)(F)F)c1)Nc1cc(C(F)(F)F)ccc1Oc1ccc(Cl)cc1Cl	0.07	0.088

test system: Plasmodium falciparum; experiment: Antimalarial activity against Plasmodium falciparum delta pfpm1 assessed as growth inhibition; type: functional, organism-based

Compound	IC50 [µM]	IC90 [µM]
O=C(Nc1ccc(Cl)c(C(F)(F)F)c1)Nc1cc(C(F)(F)F)ccc1Oc1ccc(Cl)cc1Cl	0.07	0.088

test system: Plasmodium falciparum; experiment: Antimalarial activity against chloroquine-resistant Plasmodium falciparum Dd2 assessed as growth inhibition; type: functional, organism-based

Compound	IC50 [µM]	IC90 [µM]
O=C(Nc1ccc(Cl)c(C(F)(F)F)c1)Nc1cc(C(F)(F)F)ccc1Oc1ccc(Cl)cc1Cl	0.042	0.083

test system: Plasmodium berghei; experiment: Antimalarial activity against Plasmodium berghei infected CD-1 mouse assessed as survival beyond 8 days at 128 mg/kg, sc bid; type: functional, organism-based; set-up: dose 128 mg/kg

Compound	Survival
O=C(Nc1ccc(Cl)c(C(F)(F)F)c1)Nc1cc(C(F)(F)F)ccc1Oc1ccc(Cl)cc1Cl	Active

test system: Plasmodium berghei; experiment: Antimalarial activity against Plasmodium berghei infected CD-1 mouse assessed as survival at 128 mg/kg, sc bid measured on day 31; type: functional, organism-based; set-up: dose 128 mg/kg

Compound	Survival
O=C(Nc1ccc(Cl)c(C(F)(F)F)c1)Nc1cc(C(F)(F)F)ccc1Oc1ccc(Cl)cc1Cl	inactive

test system: Plasmodium berghei; experiment: Antimalarial activity against Plasmodium berghei infected CD-1 mouse assessed as survival beyond 8 days at 256 mg/kg, sc bid; type: functional, organism-based; set-up: dose 256 mg/kg

Compound	Survival
O=C(Nc1ccc(Cl)cc1)Nc1cc(Cl)ccc1Oc1ccc(Cl)cc1Cl	inactive
O=C(Nc1ccc2ccccc2c1)Nc1cc(C(F)(F)F)ccc1Oc1ccc(Cl)cc1Cl	inactive
O=C(Nc1cc(C(F)(F)F)ccc1Oc1ccc(Cl)cc1Cl)Nc1cccc2ccccc12	inactive
O=C(Nc1ccc(Cl)c(Cl)c1)Nc1cc(Cl)ccc1Oc1ccc(Cl)cc1Cl	inactive

test system: Plasmodium falciparum; experiment: Antimalarial activity against Plasmodium falciparum 3D7 assessed as inhibition of parasite growth; type: functional, organism-based

Compound	EC50
CC(C)(N)c1cc(Cl)ccc1Oc1ccc(Cl)cc1Cl	7.2 µM
O=C(Nc1ccc(Cl)cc1)Nc1cc(Cl)ccc1Oc1ccc(Cl)cc1Cl	2 µM
NC(=O)c1cc(Cl)ccc1Oc1ccc(Cl)cc1Cl	73 µM
N#Cc1ccc(NC(=O)Nc2cc(C(F)(F)F)ccc2Oc2ccc(Cl)cc2Cl)cc1C(F)(F)F	0.13 µM
O=C(Nc1ccc(Cc2ccccc2)cc1)Nc1ccc(Oc2ccc(Cl)cc2Cl)c(C(F)(F)F)c1	1.3 µg/mL
NC(=O)Nc1ccc(Oc2ccc(Cl)cc2O)c(Cl)c1	100 µM
O=C(Nc1cc(Cl)cc(Cl)c1)Nc1cc(C(F)(F)F)ccc1Oc1ccc(Cl)cc1Cl	0.047 µg/mL
O=S(=O)(Nc1cc(Cl)ccc1Oc1ccc(Cl)cc1Cl)c1ccccc1	4.7 µM
O=C(Nc1ccc(F)c(C(F)(F)F)c1)Nc1cc(C(F)(F)F)ccc1Oc1ccc(Cl)cc1Cl	0.13 µM
O=C(Nc1ccc2ccccc2c1)Nc1cc(C(F)(F)F)ccc1Oc1ccc(Cl)cc1Cl	0.61 µM
O=C(Nc1ccc(Cl)c(C(F)(F)F)c1)Nc1cc(C(F)(F)F)ccc1Oc1ccc(Cl)cc1Cl	0.037 µM
O=C(Nc1cccnc1)Nc1cc(C(F)(F)F)ccc1Oc1ccc(Cl)cc1Cl	0.6 µg/mL
O=C(Nc1cccc(Cc2ccccc2)c1)Nc1cc(C(F)(F)F)ccc1Oc1ccc(Cl)cc1Cl	0.3 µg/mL
CS(=O)(=O)Nc1cc(Cl)ccc1Oc1ccc(Cl)cc1Cl	38 µM
O=C(Nc1cccc(S(=O)(=O)C(F)(F)F)c1)Nc1cc(C(F)(F)F)ccc1Oc1ccc(Cl)cc1Cl	0.077 µg/mL
O=C(Nc1cccc(Oc2ccccc2)c1)Nc1cc(C(F)(F)F)ccc1Oc1ccc(Cl)cc1Cl	0.3 µg/mL
O=C(O)c1cc(Cl)ccc1Oc1ccc(Cl)cc1Cl	> 150 µM
O=C(Nc1ccc(Cl)c(Cl)c1)Nc1cc(C(F)(F)F)ccc1Oc1ccc(Cl)cc1Cl	0.2 µM
O=C(Nc1cc(C(F)(F)F)ccc1Oc1ccc(Cl)cc1Cl)Nc1cc(C(F)(F)F)ccc1N1CCCCC1	3.9 µg/mL
O=C(Nc1ccc(Oc2ccc(Cl)cc2Cl)c(C(F)(F)F)c1)Nc1ccccc1Cc1ccccc1	0.5 µg/mL
Nc1cc(Cl)ccc1Oc1ccc(Cl)cc1Cl	52 µM
O=C(Nc1ccc(Cc2ccccc2)cc1)Nc1cc(C(F)(F)F)ccc1Oc1ccc(Cl)cc1Cl	0.6 µg/mL
O=C(Nc1cc(C(F)(F)F)ccc1Oc1ccc(Cl)cc1Cl)Nc1cccc2ccccc12	1.2 µM

Compound	EC50
CC(=O)Nc1cc(Cl)ccc1Oc1ccc(Cl)cc1Cl	33 µM
O=C(Nc1ccc(Oc2ccc(Cl)cc2O)c(Cl)c1)N1CCOCC1	100 µM
O=C(Nc1ccc([N+](=O)[O-])c(C(F)(F)F)c1)Nc1cc(C(F)(F)F)ccc1Oc1ccc(Cl)cc1Cl	0.072 µM
O=C(Nc1cc(C(F)(F)F)ccc1Oc1ccc(Cl)cc1Cl)NC1c2ccccc2-c2ccccc21	0.8 µg/mL
COc1cc(Cl)ccc1Oc1ccc(Cl)cc1Cl	100 µM
N#Cc1ccc(NC(=O)Nc2cc(C(F)(F)F)ccc2Oc2ccc(Cl)cc2Cl)cc1	0.14 µg/mL
CN(C(=O)N(C)c1ccc(Cl)c(C(F)(F)F)c1)c1cc(Oc2ccc(Cl)cc2Cl)cc(C(F)(F)F)c1	1.8 µg/mL
O=C(Nc1ccc(-c2ccccc2)cc1)Nc1cc(C(F)(F)F)ccc1Oc1ccc(Cl)cc1Cl	0.29 µg/mL
CN(C)c1ccc(NC(=O)Nc2cc(C(F)(F)F)ccc2Oc2ccc(Cl)cc2Cl)cc1	1.4 µg/mL
O=C(Nc1ccc(Cl)c(Cl)c1)Nc1cc(Cl)ccc1Oc1ccc(Cl)cc1Cl	1.9 µM
O=C(Nc1cc(C(F)(F)F)cc(C(F)(F)F)c1)Nc1cc(C(F)(F)F)ccc1Oc1ccc(Cl)cc1Cl	0.037 µg/mL
Clc1ccc(Oc2ccc(Cl)cc2NCc2ccccc2)c(Cl)c1	9.7 µM
O=C(Nc1ccc2c(c1)OCO2)Nc1cc(C(F)(F)F)ccc1Oc1ccc(Cl)cc1Cl	1.1 µg/mL
NCc1cc(Cl)ccc1Oc1ccc(Cl)cc1Cl	2.3 µM
N#Cc1cc(Cl)ccc1Oc1ccc(Cl)cc1Cl	20 µM
N#Cc1cccc(NC(=O)Nc2cc(C(F)(F)F)ccc2Oc2ccc(Cl)cc2Cl)c1	0.14 µg/mL
Nc1ccc(NC(=O)Nc2cc(C(F)(F)F)ccc2Oc2ccc(Cl)cc2Cl)cc1C(F)(F)F	1.5 µM
O=C(Nc1ccccc1)Nc1cc(Cl)ccc1Oc1ccc(Cl)cc1Cl	0.73 µM
O=C(Nc1cc(C(F)(F)F)ccc1Oc1ccc(Cl)cc1Cl)Nc1ccccc1-c1ccccc1	0.6 µg/mL
O=C(NCc1ccco1)Nc1cc(C(F)(F)F)ccc1Oc1ccc(Cl)cc1Cl	2.3 µg/mL
COc1ccc(NC(=O)Nc2cc(C(F)(F)F)ccc2Oc2ccc(Cl)cc2Cl)cc1C(F)(F)F	0.18 µM
N#Cc1ccc(NC(=O)Nc2cc(C(F)(F)F)ccc2Oc2ccc(Cl)cc2Cl)cc1C#N	0.081 µM
NC(=O)Nc1cc(Cl)ccc1Oc1ccc(Cl)cc1Cl	18 µM

test system: Plasmodium falciparum; experiment: Antimalarial activity against Plasmodium falciparum Dd2 assessed as inhibition of parasite growth; type: functional, organism-based

Compound	EC50
CC(C)(N)c1cc(Cl)ccc1Oc1ccc(Cl)cc1Cl	1.8 µM
O=C(Nc1ccc(Cl)cc1)Nc1cc(Cl)ccc1Oc1ccc(Cl)cc1Cl	5 µM
NC(=O)c1cc(Cl)ccc1Oc1ccc(Cl)cc1Cl	60 µM
N#Cc1ccc(NC(=O)Nc2cc(C(F)(F)F)ccc2Oc2ccc(Cl)cc2Cl)cc1C(F)(F)F	0.075 µM
O=C(Nc1ccc(Cc2ccccc2)cc1)Nc1ccc(Oc2ccc(Cl)cc2Cl)c(C(F)(F)F)c1	1.2 µg/mL
NC(=O)Nc1ccc(Oc2ccc(Cl)cc2O)c(Cl)c1	100 µM
O=C(Nc1cc(Cl)cc(Cl)c1)Nc1cc(C(F)(F)F)ccc1Oc1ccc(Cl)cc1Cl	0.046 µg/mL
O=S(=O)(Nc1cc(Cl)ccc1Oc1ccc(Cl)cc1Cl)c1ccccc1	5.1 µM
O=C(Nc1ccc(F)c(C(F)(F)F)c1)Nc1cc(C(F)(F)F)ccc1Oc1ccc(Cl)cc1Cl	0.15 µM
O=C(Nc1ccc2ccccc2c1)Nc1cc(C(F)(F)F)ccc1Oc1ccc(Cl)cc1Cl	0.41 µM
O=C(Nc1ccc(Cl)c(C(F)(F)F)c1)Nc1cc(C(F)(F)F)ccc1Oc1ccc(Cl)cc1Cl	0.055 µM
O=C(Nc1cccnc1)Nc1cc(C(F)(F)F)ccc1Oc1ccc(Cl)cc1Cl	1 µg/mL
O=C(Nc1cccc(Cc2ccccc2)c1)Nc1cc(C(F)(F)F)ccc1Oc1ccc(Cl)cc1Cl	0.3 µg/mL
CS(=O)(=O)Nc1cc(Cl)ccc1Oc1ccc(Cl)cc1Cl	60 µM
O=C(Nc1cccc(S(=O)(=O)C(F)(F)F)c1)Nc1cc(C(F)(F)F)ccc1Oc1ccc(Cl)cc1Cl	0.077 µg/mL
O=C(Nc1cccc(Oc2ccccc2)c1)Nc1cc(C(F)(F)F)ccc1Oc1ccc(Cl)cc1Cl	0.2 µg/mL
O=C(O)c1cc(Cl)ccc1Oc1ccc(Cl)cc1Cl	> 150 µM
O=C(Nc1ccc(Cl)c(Cl)c1)Nc1cc(C(F)(F)F)ccc1Oc1ccc(Cl)cc1Cl	0.2 µM
O=C(Nc1cc(C(F)(F)F)ccc1Oc1ccc(Cl)cc1Cl)Nc1cc(C(F)(F)F)ccc1N1CCCCC1	2.7 µg/mL
O=C(Nc1ccc(Oc2ccc(Cl)cc2Cl)c(C(F)(F)F)c1)Nc1ccccc1Cc1ccccc1	0.6 µg/mL
Nc1cc(Cl)ccc1Oc1ccc(Cl)cc1Cl	55 µM
O=C(Nc1ccc(Cc2ccccc2)cc1)Nc1cc(C(F)(F)F)ccc1Oc1ccc(Cl)cc1Cl	0.3 µg/mL
O=C(Nc1cc(C(F)(F)F)ccc1Oc1ccc(Cl)cc1Cl)Nc1cccc2ccccc12	0.81 µM

Compound	EC50
CC(=O)Nc1cc(Cl)ccc1Oc1ccc(Cl)cc1Cl	48 µM
O=C(Nc1ccc(Oc2ccc(Cl)cc2O)c(Cl)c1)N1CCOCC1	100 µM
O=C(Nc1ccc([N+](=O)[O-])c(C(F)(F)F)c1)Nc1cc(C(F)(F)F)ccc1Oc1ccc(Cl)cc1Cl	0.072 µM
O=C(Nc1cc(C(F)(F)F)ccc1Oc1ccc(Cl)cc1Cl)NC1c2ccccc2-c2ccccc21	1.4 µg/mL
COc1cc(Cl)ccc1Oc1ccc(Cl)cc1Cl	76 µM
N#Cc1ccc(NC(=O)Nc2cc(C(F)(F)F)ccc2Oc2ccc(Cl)cc2Cl)cc1	0.11 µg/mL
CN(C(=O)N(C)c1ccc(Cl)c(C(F)(F)F)c1)c1cc(Oc2ccc(Cl)cc2Cl)cc(C(F)(F)F)c1	2.4 µg/mL
O=C(Nc1ccc(-c2ccccc2)cc1)Nc1cc(C(F)(F)F)ccc1Oc1ccc(Cl)cc1Cl	0.29 µg/mL
CN(C)c1ccc(NC(=O)Nc2cc(C(F)(F)F)ccc2Oc2ccc(Cl)cc2Cl)cc1	1.8 µg/mL
O=C(Nc1ccc(Cl)c(Cl)c1)Nc1cc(Cl)ccc1Oc1ccc(Cl)cc1Cl	2.5 µM
O=C(Nc1cc(C(F)(F)F)cc(C(F)(F)F)c1)Nc1cc(C(F)(F)F)ccc1Oc1ccc(Cl)cc1Cl	0.044 µg/mL
Clc1ccc(Oc2ccc(Cl)cc2NCc2ccccc2)c(Cl)c1	9.4 µM
O=C(Nc1ccc2c(c1)OCO2)Nc1cc(C(F)(F)F)ccc1Oc1ccc(Cl)cc1Cl	1.2 µg/mL
NCc1cc(Cl)ccc1Oc1ccc(Cl)cc1Cl	4.3 µM
N#Cc1cc(Cl)ccc1Oc1ccc(Cl)cc1Cl	43 µM
N#Cc1cccc(NC(=O)Nc2cc(C(F)(F)F)ccc2Oc2ccc(Cl)cc2Cl)c1	0.14 µg/mL
Nc1ccc(NC(=O)Nc2cc(C(F)(F)F)ccc2Oc2ccc(Cl)cc2Cl)cc1C(F)(F)F	3.6 µM
O=C(Nc1ccccc1)Nc1cc(Cl)ccc1Oc1ccc(Cl)cc1Cl	1.2 µM
O=C(Nc1cc(C(F)(F)F)ccc1Oc1ccc(Cl)cc1Cl)Nc1ccccc1-c1ccccc1	0.9 µg/mL
O=C(NCc1ccco1)Nc1cc(C(F)(F)F)ccc1Oc1ccc(Cl)cc1Cl	2.6 µg/mL
COc1ccc(NC(=O)Nc2cc(C(F)(F)F)ccc2Oc2ccc(Cl)cc2Cl)cc1C(F)(F)F	0.18 µM
N#Cc1ccc(NC(=O)Nc2cc(C(F)(F)F)ccc2Oc2ccc(Cl)cc2Cl)cc1C#N	0.14 µM
NC(=O)Nc1cc(Cl)ccc1Oc1ccc(Cl)cc1Cl	18 µM
